From patent publication US12116353B1, “Crystalline chloro-n-(4-(morpholinomethyl)phenyl)benzamide and crystalline hydrochloride salt” (GEN1E LIFESCIENCES INC., priority 2024, dated 2024) come the findings set out here.

The nature of the data set: Equilibrium solubility in aqueous buffers. It counts as physicochemical. To be noted: thermodynamic from solid, LC-MS/MS. How it is done:
The equilibrium solubility of crystalline compound (1) and crystalline compound (2) was measured in various aqueous buffers. The pH 4.0 and pH 5.0 buffers were prepared by combining 50 mL of 0.2 M potassium biphthalate with 150 mL of H2O, and then adjusting to pH 4.0 or pH 5.0 with 10 N HCl. The pH 6.0 buffer was prepared by combining 50 mL of 0.2 M KH2PO4 with 150 mL of H2O, and then adjusting to pH 6.0 with 10 N NaOH. The pH 7.4 buffer was prepared by combining 50 mL of 0.2 M KH2PO4 with 150 mL of H2O, and then adjusting to pH 7.4 with 10 N NaOH. At least 1 mg of powder for each compound was combined with 1 mL of each buffer to make a saturated mixture. The samples were shaken overnight on a Thermomixer® at room temperature. The samples were then passed through a […] PTFE syringe filter. The filtrate was sampled and diluted in duplicate as appropriate into a mixture of 1:1 buffer:acetonitrile (ACN) prior to analysis. All samples were assayed by LC-MS/MS using electrospray ionization against standards prepared in a mixture of 1:1 assay buffer:ACN. Standard concentrations ranged from 1.0 μM to 0.3 nM. The samples were analyzed by LCMS using a Waters Acuity® UPLC BEH Phenyl 30×2.1 mm, 1.7 μm liquid chromatography column and a PE Sciex® API 4000 mass spectrometer equipped with a Turbo Ionspray.

Converted amounts (≈) assume the structure as drawn.

`O=C(Nc1ccc(CN2CCOCC2)cc1)c1ccc(Cl)cc1` [Crystalline Compound (2), 4-chloro-N-(4-(morpholinomethyl)phenyl)benzamide] came in with a solubility (aqueous potassium phosphate (KH2PO4) buffer, aqueous buffer pH 7.4, shaken overnight at room temperature) of 0.0125 mM (≈ 4.14 µg/mL).
With `Cl.O=C(Nc1ccc(CN2CCOCC2)cc1)c1ccc(Cl)cc1` [Crystalline Compound (1), 4-chloro-N-(4-(morpholinomethyl)phenyl)benzamide hydrochloride], the solubility (aqueous potassium biphthalate buffer, aqueous buffer pH 4.0, shaken overnight at room temperature) stood at 12.5 mM; the solubility (aqueous potassium biphthalate buffer, aqueous buffer pH 5.0, shaken overnight at room temperature) was 10.2 mM; the solubility (aqueous potassium phosphate (KH2PO4) buffer, aqueous buffer pH 6.0, shaken overnight at room temperature) came out at 8.17 mM.
